We go through 9 compounds from paper PMC7956971, “Fluorometric Liposome Screen for Inhibitors of a Physiologically Important Bacterial Ion Channel” (Frontiers in Microbiology, 2021).

The target in assay [1] is T1, KtrAB (Bacillus subtilis, UniProt O32081).
T1 construct: gene ktrB; purified complex of dimeric membrane protein KtrB and octameric cytoplasmic KtrA ring, reconstituted in liposomes; with Ktr system potassium uptake protein A
Kind of assay: ACMA fluorescence K+ efflux assay in proteoliposomes, 96-well, Hill fit of final fluorescence. In kind it is biochemical.

For assay [2], the target named is T2, NaKΔN19/F92A (Bacillus cereus, UniProt Q81HW2, F92A).
T2 construct: gene BC_0669
As to conditions: read-out: KI; no nucleotide; pH 8.0; KI defined as constant of 50% inhibition.

Assay [3] concerns the target T3, KtrB (Bacillus subtilis, UniProt O32081).
T3 construct: purified membrane subunit KtrB alone (no KtrA), reconstituted in liposomes; dimer
Kind of assay: ACMA fluorescence K+ efflux assay in proteoliposomes, 96-well, Hill fit of final fluorescence. Format: biochemical.

The target in assay [4] is T4, KtrAB (Bacillus subtilis, UniProt O32081, R417K).
T4 construct: gene ktrB; purified complex of dimeric membrane protein KtrB and octameric cytoplasmic KtrA ring, reconstituted in liposomes; with Ktr system potassium uptake protein A
Briefly: ACMA fluorescence K+ efflux assay in proteoliposomes, single concentration. In kind it is biochemical. As to conditions: ATP form; also tested in the ADP form.

Structures are written as SMILES. Where two headings read alike, the source gives them in different places.

T1 sequence (O32081 whole entry): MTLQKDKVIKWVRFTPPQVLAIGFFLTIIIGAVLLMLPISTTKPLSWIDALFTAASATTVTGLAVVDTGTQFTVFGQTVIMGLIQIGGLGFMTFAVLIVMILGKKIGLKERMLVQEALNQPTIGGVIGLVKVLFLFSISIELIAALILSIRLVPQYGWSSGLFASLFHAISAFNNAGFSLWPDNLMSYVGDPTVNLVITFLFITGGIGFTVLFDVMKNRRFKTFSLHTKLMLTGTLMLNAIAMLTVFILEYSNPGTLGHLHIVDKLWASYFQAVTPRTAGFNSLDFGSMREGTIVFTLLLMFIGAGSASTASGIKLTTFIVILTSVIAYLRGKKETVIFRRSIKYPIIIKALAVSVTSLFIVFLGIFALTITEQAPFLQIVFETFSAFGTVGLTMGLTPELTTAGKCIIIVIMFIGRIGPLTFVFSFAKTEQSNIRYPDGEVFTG
T1 sequence (O32080 whole entry, further chain): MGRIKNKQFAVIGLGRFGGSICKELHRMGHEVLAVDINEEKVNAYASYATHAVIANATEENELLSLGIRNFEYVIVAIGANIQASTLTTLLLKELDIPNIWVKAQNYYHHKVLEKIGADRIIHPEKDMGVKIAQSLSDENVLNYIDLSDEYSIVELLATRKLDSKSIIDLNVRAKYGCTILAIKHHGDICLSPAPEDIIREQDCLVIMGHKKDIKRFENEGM
T3 sequence (O32081 whole entry): as the sequence (O32081 whole entry) above
T2 sequence (Q81HW2 19-110 F92A): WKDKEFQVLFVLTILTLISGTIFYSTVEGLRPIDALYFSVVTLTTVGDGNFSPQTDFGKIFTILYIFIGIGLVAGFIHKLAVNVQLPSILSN
T4 sequence (O32080 whole entry): as the sequence (O32080 whole entry, further chain) above
T4 sequence (O32081 whole entry R417K): as the sequence (O32081 whole entry) above, with R417K counted along it

Regarding `OC(CN1CCCCCC1)CN(c1ccccc1)c1ccccc1` (centres unmarked) [compound 3, compound #3], the IC50 in assay [1] (read-out: KI) was determined as 2000 nM.

On to `COc1ccc(CN2CCN(c3cccc(C)c3C)CC2)c(OC)c1` [compound 6, compound #6], for which the IC50 came out at 16000 nM in assay [2] and 1000 nM in assay [1] (read-out: KI).

Take `COc1ccc(Br)cc1CNCCc1cccc(F)c1` [compound 39, compound #39]: the IC50 was determined as 3800 nM in assay [3] and 4000 nM in assay [1].

As to `CC1CCCC(C)N1CC(O)COc1ccc(Cl)cc1` (centres unmarked) [compound 41, compound #41], in assay [1] (read-out: KI), the IC50 is 3000 nM.

With `Cc1cc(C)c(OCC(O)CNC(C)(C)CC(C)(C)C)c(C)c1` (centres unmarked) [compound 1, compound #1], the IC50 in assay [2] stood at 14000 nM; in assay [1] (read-out: KI), 2000 nM.

Turning to `Cc1cc(C)c(C)c(OCCCCN2CCCCC2)c1` [compound 25, compound #25], the IC50 in assay [1] (read-out: KI) came to 2000 nM.

Regarding `CCN(CC)CCn1c(=N)n(CC(=O)C23CC4CC(CC(C4)C2)C3)c2ccccc21` [compound 21, compound #21], the IC50 in assay [1] (read-out: KI) is 800 nM.

Regarding `O=C(Nc1ccc(Cl)cc1)Nc1cccc(C(F)(F)F)c1` [compound 36, compound #36], the “% inhibition at 6 μM” value in assay [4] is “all tested compounds showed inhibition with both the active and inactive forms of KtrABR417K”. Besides, the IC50 in assay [3] (no nucleotide, KtrB alone, pH 8.0, KI defined as constant of 50% inhibition, read-out: KI) was determined as 500 nM; in assay [1] (0.1 mM ATP (active state), 0.5 mM MgCl2, pH 8.0, KI defined as constant of 50% inhibition, read-out: KI), 8000 nM.

For `CCCN1CCC(N(CCc2ccccc2)Cc2ccccc2)CC1` [compound 31, compound #31], the IC50 in assay [1] (read-out: KI) came to 1000 nM.
